Patent US10526317B2, “Benzocyanine compounds” (PIERCE BIOTECHNOLOGY, INC., priority 2012, dated 2020)
“Also recorded” adds a separate entry of the source. One block for each molecule: values may come before it.

How the values were obtained:
[1] = tested on: CEA; parameters: species or system nu/nu mice; details: mouse; for post-experiment surgical exposure (in words): in vivo
Method: The inventive compounds are used for in vivo imaging as described in J. Gastrointest Surg (2008) 12:1938-1950. Briefly, human pancreatic cell lines are maintained in media supplemented with penicillin/streptomycin at 37° C. with 5% CO2. Mouse anti-CEA antibody and Control Mouse IgG (in PBS with 0.20% sodium azide) are conjugated to V08-15173. The dye is reconstituted at 10 mg/ml in DMF and then added to the antibody at a 10 molar excess. The reaction is carried out for one hour at room temperature. The samples are then dialyzed against 3×2 L of PBS. The cell lines are plated in 96-well plates at 5×10^4 cells per well. After 48 hours culture in appropriate media, the cells are incubated with 1 μg of V08-15173 labeled anti-CEA antibody or V08-15173-labeled control mouse IgG for four hours at 37° C. The cells are then washed three times with PBS and then imaged with an inverted Nikon De-485 microscope and Spot camera RD.
Surgical procedures and intravital imaging are performed with the animals anesthesized by intramuscular injection of 0.02 ml of 50% ketamine, 38% xylazine and 12 acepromazine maleate. Human pancreatic and colorectal cancer cell lines are harvested by trypsinization and washed twice with serum free medium and washed twice with serum-free medium. Cells (1×10^6 in 100 μl of serum-free media) are injected subcutaneously within 30 minutes of harvesting over the right flank in female nu/nu mice between 4-6 weeks of age. Subcutaneous tumors are allowed to grow for 7-14 days until they reached diameter of 1-2 mm prior to the delivery of conjugated antibody. For ASPC-1 implants, the cells are harvested by trpsinization and washed 3× in serum-free media. The cells are resuspended in serum-free media. The cells are resuspended in serum-free media at 5×10^6/ml. A volume of 200 μl of the cell suspension is then injected directly into the peritoneal cavity within 30 minutes of harvesting.
For antibody delivery, one to two weeks after subcutaneous, orthotopic, or intraperitoneal tumor implantation, animals are given intravenous (i.v.) injection of either conjugated anti-CEA or conjugated control IgG antibody diluted in PBS to a final volume of 100 μl. All i.v. injections are done via the tail vein. For the dose-response experiment, the antibody dose is 75 μg. For the in vivo time course, the animals are anesthesized and imaged at 30 min, 1, 2, 6, 24 hours and 8 and 15 days after systemic antibody delivery.
The inventive compounds are used for in vivo imaging as described in J. Gastrointest Surg (2008) 12:1938-1950. Briefly, human pancreatic cell lines are maintained in media supplemented with penicillin/streptomycin at 37° C. with 5% CO2. Mouse anti-CEA antibody and Control Mouse IgG (in PBS with 0.20% sodium azide) are conjugated to 779 Compound 1. […]

[2] = tested on: lamin A; assay: Immunofluorescence detection of lamin A in U2OS cells, dye-GAM secondary (FIG. 29A-C and repeat); assay type: cell-based, human; details: for Mean Total Intensity, Negative control: no primary antibody
Method: In the indicated experiments, the inventive compounds and commercial dye were evaluated for immunofluorescence in a cell based assay using the following protocol. Frozen U20S cell plates which were stored at −80° C. were thawed for 45 minutes at 50° C. Storage buffer (PBS) was removed and the cells were permeabilized for 15 minutes with 0.1% Triton-X100 in 1×PBS buffer (100 μl/well). The cell plate was blocked for 60 minutes in 2% BSA/PBS-0.1% Triton-X100. Primary antibody, either rat anti-Grp94 (5 μg/ml), mouse anti-lamin A (10 μg/ml), or rabbit anti-lamin B1 (10 μg/ml), diluted in 2% BSA/PBS-0.1% Triton-X100 was added to the plate and incubated for 1 hour at room temperature. Control wells contained only 2% BSA/PBS-0.1% Triton-X100 blocker. After incubation, the antibody solution was removed from the plate and the plate was washed three times with 100 μl/well of PBS-0.5% Tween-20 and one time with 100 μl/well PBS. GARat, GAM, or GAR secondary antibodies labeled with various molar excess of the inventive or commercial compound were diluted to 4 μg/ml in PBS and incubated for 1 hour at room temperature. The plates were washed three times with 100 μl/well of PBST and once with 100 μl/well PBS, and Hoechst (diluted to 0.1 μg/ml in PBS) was added to each well (100 μl/well). The plates were scanned on ArrayScan Plate Reader or ToxInsight Instrument.
Quantitative analysis of a repeat experiment of FIG. 29A-C are shown below.

[3] = Absorption/emission profiles and spectral properties of the dyes; assay type: physicochemical
Method: The following properties of 679 Compound 1-NHS were compared with commercially available dyes.
Emission/excitation profiles for inventive and commercial compounds was determined by reconstituting the compounds in DMF at 10 mg/ml and then diluting in PBS buffer pH 7.2 to 10 μg/ml. Absorbance spectra were collected on Cary UV spectrophotometer and emission spectra were collected on Tecan Safire, shown in FIG. 1 where solid lines represent absorbance spectra and dashed lines represent emission spectra, for DyLight 680-NHS (purple), DyLight 680B-NHS (blue), 679 Compound 1-NHS (red), and Company B Compound-NHS (black). The maximum absorbance and emission for each compound is shown below.
The following properties of 679 Compound 1-NHS, 679 Compound 4/4-NHS (V08-15173), and 679 Compound 4/4-NHS (V10-04152) were compared with commercially available dyes.

[4] = Micro conjugation (labeling of ≥0.1 mg monoclonal antibody): D/P, protein recovery, free dye; details: 15 μg dye or commercial kit, mouse MAb
Method: Another experiment set used inventive and commercial compounds, each as the NHS ester, in a micro conjugation (labeling of≥0.1 mg antibody). […] The antibodies were labeled and purified as described above.

[5] = second property table of Example 6
[6] = first property table of Example 6

Molecule: COCCOCCOCCOCC[N+]1=C(/C=C/C=C/C=C2/N(CCOCCOCCOCCOCCC(=O)ON3C(=O)CCC3=O)c3ccc4c(S(=O)(=O)[O-])cc(S(=O)(=O)O)cc4c3C2(C)CCOCCOCCOCCOC)C(C)(CCOCCOCCOCCOC)c2c1ccc1c(S(=O)(=O)O)cc(S(=O)(=O)O)cc21 (stereo not drawn) [Compound V08-15173]
Ex vivo analysis of the vital organs (in words) [1]: presence of dye predominantly in the liver with some signal detected in the spleen intestines and lungs | post-experiment surgical exposure (in words) [1]: accumulation of dye in the liver, bladder, and a region of inflammation in the subcutaneous tissue | S/B ([2]; 2.5 X molar excess): 2.9 | S/B ([2]; 5.0 X molar excess): 4.9 | S/B ([2]; 7.5 X molar excess): 6.0 | S/B ([2]; 10 X molar excess): 4.9 | S/B ([2]; 15 X molar excess): 4.6 | Mean Total Intensity (Average) ([2]; GAM conjugate 4 μg/ml, 2.5 X molar excess): 17366 | Mean Total Intensity (Average) ([2]; GAM conjugate 4 μg/ml, 5.0 X molar excess): 32820 | Mean Total Intensity (Average) ([2]; GAM conjugate 4 μg/ml, 7.5 X molar excess): 42876 | Mean Total Intensity (Average) ([2]; GAM conjugate 4 μg/ml, 10 X molar excess): 47756 | Mean Total Intensity (Average) ([2]; GAM conjugate 4 μg/ml, 15 X molar excess): 49060 | non-specific binding / specificity (in words) ([2]; GAM conjugates): a minimal amount of non-specific binding; also recorded: little non-specific binding | Mean Total Intensity, Negative control ([2]; 2.5 X): 5966 | Mean Total Intensity, Negative control ([2]; 5.0 X): 6643 | Mean Total Intensity, Negative control ([2]; 7.5 X): 7100 | Mean Total Intensity, Negative control ([2]; 10 X): 9690 | Mean Total Intensity, Negative control ([2]; 15 X): 10779 | S/B ([2]; repeat experiment, 2.5 X): 9.8 | Mean Total Intensity (Average) ([2]; repeat experiment, 2.5 X molar excess): 118440 | S/B ([2]; repeat experiment, 5 X): 19.4 | Mean Total Intensity (Average) ([2]; repeat experiment, 5 X molar excess): 183078 | S/B ([2]; repeat experiment, 10X): 29.9 | Mean Total Intensity (Average) ([2]; repeat experiment, 10X molar excess): 391473 | S/B ([2]; repeat experiment, 15 X): 12.2 | Mean Total Intensity (Average) ([2]; repeat experiment, 15 X molar excess): 211270 | Mean Total Intensity, Negative control ([2]; repeat experiment, 2.5 X): 12053 | Mean Total Intensity, Negative control ([2]; repeat experiment, 5 X): 9441 | Mean Total Intensity, Negative control ([2]; repeat experiment, 10X): 13094 | Mean Total Intensity, Negative control ([2]; repeat experiment, 15 X): 17260

Molecule: COCC[N+]1=C(/C=C/C=C/C=C/C=C2/N(CCCCCC(=O)O)c3ccc4c(S(=O)(=O)[O-])cc(S(=O)(=O)O)cc4c3C2(C)C)C(C)(CCCS(=O)(=O)O)c2c1ccc1c(S(=O)(=O)O)cc(S(=O)(=O)O)cc21 (stereo not drawn) [779 Compound 1]
Ex vivo analysis of the vital organs (in words) [1]: presence of dye predominantly in the liver with some signal detected in the spleen intestines and lungs | post-experiment surgical exposure (in words) [1]: accumulation of dye in the liver, bladder, and a region of inflammation in the subcutaneous tissue

Molecule: COCCOCCOCCOCC[N+]1=C(/C=C/C=C/C=C2/N(CCOCCOCCOCCOCCC(=O)ON3C(=O)CCC3=O)c3ccc4c(S(=O)(=O)[O-])cc(S(=O)(=O)O)cc4c3C2(C)CCOCCOCCOCCOC)C(C)(CCOCCOCCOCCOC)c2c1ccc1c(S(=O)(=O)O)cc(S(=O)(=O)O)cc21 (stereo not drawn) [V08-15173 NHS]
Em (nm) [3, 5]: 706 nm | Ex (nm) [3, 5]: 684 nm | ε (M^−1cm^−1) (theoretical) ([3]; theoretical): 180,000 M^−1cm^−1

Molecule: COCC[N+]1=C(/C=C/C=C/C=C2/N(CCCCCC(=O)O)c3ccc4c(S(=O)(=O)[O-])cc(S(=O)(=O)[O-])cc4c3C2(C)C)C(C)(CCCS(=O)(=O)[O-])c2c1ccc1c(S(=O)(=O)[O-])cc(S(=O)(=O)[O-])cc21.[Na+].[Na+].[Na+].[Na+] (single isomer, unassigned) [679 Compound 1/1 (Isomer 2), 2-{(1E,3E)-5-[3-(5-Carboxypentyl)-1,1-dimethyl-6,8-disulfo-1,3-dihydro-benzo[e]indol-(2E)-ylidene]-penta-1,3-dienyl}-3-(2-methoxy-ethyl)-1-methyl-6,8-disulfo-1-(3-sulfopropyl)-1H-benzo[e]indolium]
λem ([3]; PBS): 698 nm

Molecule: Alexa 680-PDI
% Free Dye [4]: 9%

Molecule: Alexa 680-cytochrome C
% Free Dye [4]: 3%

Em (nm) [3, 6]: 698 nm | Ex (nm) [3, 6]: 679 nm | Em (nm) [3, 5]: 698 nm | Ex (nm) [3, 5]: 679 nm | ε (M^−1cm^−1) (theoretical) ([3]; theoretical): 180,000 M^−1cm^−1 | ε (M−1cm−1) (theoretical) ([3]; theoretical): 180,000 M−1cm−1
Molecule: COCC[N+]1=C(/C=C/C=C/C=C2/N(CCCCCC(=O)ON3C(=O)CCC3=O)c3ccc4c(S(=O)(=O)[O-])cc(S(=O)(=O)O)cc4c3C2(C)C)C(C)(CCCS(=O)(=O)O)c2c1ccc1c(S(=O)(=O)O)cc(S(=O)(=O)O)cc21 (stereo not drawn) [679 Compound 1-NHS]

Molecule: COCC[N+]1=C(/C=C/C=C/C=C2/N(CCCCCC(=O)O)c3ccc4c(S(=O)(=O)[O-])cc(S(=O)(=O)[O-])cc4c3C2(C)C)C(C)(CCCS(=O)(=O)[O-])c2c1ccc1c(S(=O)(=O)[O-])cc(S(=O)(=O)[O-])cc21.[Na+].[Na+].[Na+].[Na+] (single isomer, unassigned) [679 Compound 1/1 (Isomer 1), 2-{(1E,3E)-5-[3-(5-Carboxypentyl)-1,1-dimethyl-6,8-disulfo-1,3-dihydro-benzo[e]indol-(2E)-ylidene]-penta-1,3-dienyl}-3-(2-methoxy-ethyl)-1-methyl-6,8-disulfo-1-(3-sulfopropyl)-1H-benzo[e]indolium]
UV-vis (PBS): λmax ([3]; PBS): 679 nm | λem ([3]; PBS): 698 nm

Molecule: CF 680-cytochrome C
% Free Dye [4]: 17%

Molecule: CF 680R-cytochrome C
% Free Dye [4]: 5%
